We go through 21 compounds from patent US20240228927A1, “MICROFLUIDIC PLATFORM FOR DETECTION OF LIVER INJURY” (Javelin Biotech, Inc., priority 2023, published 2024).

System in one data set: not given
Assay: not given
As to conditions: clinically observed, human plasma; cited from earlier work.
For the compound `O=C(O)Cc1ccccc1Nc1c(Cl)cccc1Cl` [Diclofenac], the highest concentration (Cmax) (commonly the maximum level reached in the sampled fluid or tissue) was 4 to 10 µM.

Another data set has as its system liver.
Assay: not given
As to conditions: BSEP / mitochondrial toxicity relative to the paired liver toxicant; cited from earlier work.
As to `O=C1CC2(CCCC2)CC(=O)N1CCCCN1CCN(c2ncccn2)CC1` [Buspirone], the Comparator characteristic entry is on record as “Less BSEP”.

The data set is the same for the next values; noted with them: in vivo; cited from earlier work.
On to `O=c1[nH]c(=O)n(C2OC(CO)C(O)C2F)cc1I` (stereo not shown) [FIRU], for which the “DILI presentation (Less toxic comparator)” value is recorded as “No DILI”.
With `N[C@@H]1[C@H]2CN(c3nc4c(cc3F)c(=O)c(C(=O)O)cn4-c3ccc(F)cc3F)C[C@@H]12` [Trovafloxacin], the “DILI presentation (Liver toxicant)” value is listed as “Acute liver”.
For Mipomersen, the “DILI presentation (Liver toxicant)” value was “ALT elevations” and the Mechanism of toxicity result was “Lipid”.

The same data set, now with this note: less toxic comparator of Table 1; cited from earlier work.
Turning to `COC(c1ccccc1)(c1ccccc1)[C@H](Oc1nc(C)cc(C)n1)C(=O)O` [Ambrisentan], the “DILI presentation (Less toxic comparator)” value is given as “Minimal”.
Regarding `O=C1CC2(CCCC2)CC(=O)N1CCCCN1CCN(c2ncccn2)CC1` [Buspirone], the “DILI presentation (Less toxic comparator)” value is reported as “No/low”.
For `CCN(CC)C(=O)/C(C#N)=C/c1cc(O)c(O)c([N+](=O)[O-])c1` [Entacapone], the “DILI presentation (Less toxic comparator)” value is “Low DILI”.
On to `Cc1cc2c(s1)Nc1ccccc1N=C2N1CCN(C)CC1` [Olanzapine], for which the “DILI presentation (Less toxic comparator)” value is reported as “No DILI”.
With `CCc1ccc(CCOc2ccc(CC3SC(=O)NC3=O)cc2)nc1` (stereo not shown) [Pioglitazone], the “DILI presentation (Less toxic comparator)” value is listed as “Low DILI”.

Staying with this data set, now noted: liver toxicant of Table 1; cited from earlier work.
For `C=C[C@@H]1C[C@]1(NC(=O)[C@@H]1C[C@@H](Oc2ncc(OC)c3ccc(Cl)cc23)CN1C(=O)[C@@H](NC(=O)OC(C)(C)C)C(C)(C)C)C(=O)NS(=O)(=O)C1CC1` [Asunaprevir], the “DILI presentation (Liver toxicant)” value is on record as “ALT elevations”.
For the compound `CN1CCN(C2=Nc3cc(Cl)ccc3Nc3ccccc32)CC1` [Clozapine], the Mechanism of toxicity entry is given as “Reactive”.
For the compound `O=c1[nH]c(=O)n([C@@H]2O[C@H](CO)[C@@H](O)[C@@H]2F)cc1I` [Fialuridine], the “DILI presentation (Liver toxicant)” value is on record as “Liver failure” and the Mechanism of toxicity entry was “Mitochondrial”.
Turning to `CCc1nn(CCCN2CCN(c3cccc(Cl)c3)CC2)c(=O)n1CCOc1ccccc1` [Nefazodone], the “DILI presentation (Liver toxicant)” value is listed as “Liver failure” and the Mechanism of toxicity entry is recorded as “Reactive”.
Turning to `Cc1cc2c(cc1CC(=O)c1sccc1S(=O)(=O)Nc1onc(C)c1Cl)OCO2` [Sitaxsentan], the “DILI presentation (Liver toxicant)” value was “ALT elevations” and the Mechanism of toxicity result is “Reactive”.
With `CC[C@H]1OC(=O)[C@H](C)C(=O)[C@H](C)[C@@H](O[C@@H]2O[C@H](C)C[C@H](N(C)C)[C@H]2O)[C@](C)(OC)C[C@@H](C)C(=O)[C@H](C)[C@H]2N(CCCCn3cnc(-c4cccnc4)c3)C(=O)O[C@]12C` [Telithromycin], the “DILI presentation (Liver toxicant)” value is recorded as “ALT elevations” and the Mechanism of toxicity result is on record as “Bile acid”.
Regarding `Cc1ccc(C(=O)c2cc(O)c(O)c([N+](=O)[O-])c2)cc1` [Tolcapone], the “DILI presentation (Liver toxicant)” value is “ALT elevations;” and the Mechanism of toxicity result is recorded as “Reactive”.
As for `Cc1c(C)c2c(c(C)c1O)CCC(C)(COc1ccc(CC3SC(=O)NC3=O)cc1)O2` (stereo not shown) [Troglitazone], the “DILI presentation (Liver toxicant)” value is recorded as “ALT, bilirubin” and the Mechanism of toxicity result was “Reactive”.
On to `N[C@@H]1[C@H]2CN(c3nc4c(cc3F)c(=O)c(C(=O)O)cn4-c3ccc(F)cc3F)C[C@@H]12` [Trovafloxacin], for which the Mechanism of toxicity entry is listed as “Immune-”.
For `CC(c1cc2ccccc2s1)N(O)C(N)=O` (stereo not shown) [Zileuton], the “DILI presentation (Liver toxicant)” value was “ALT elevations” and the Mechanism of toxicity entry is “Reactive”.

The subject of a further data set is in vitro liver tissue. Description: mitochondrial stress test: on-chip oxygen consumption rate (OCR) of liver tissue. The class given is cell-based, human. The note with it: oligomycin 1 μM, FCCP 0.3 μM, rotenone 1 μM with antimycin A 0.5 μM, 30 min each; matured tissue on chip.
From the text: The microfluidic chip 100 and control system perform measurements of the oxygen consumption rate of in vitro liver tissue as a readout of mitochondrial function.
Oxygen sensing is achieved by combining a disposable oxygen sensor spot with an oxygen sensing meter. The meter provides an optical excitation signal to the sensor spot and measures the emitted light from the sensor spot. The light emitted by the sensor spot is influenced by a partial pressure of oxygen in fluid in contact with the sensor spot. Two sensor spots are placed in the primary flow path either side of the tissue culture area to measure the oxygen consumption of the tissue. The meters in the control module are placed such that they can measure the oxygen sensor values during normal operation.
The microfluidic chip 100 performs quantification of cellular respiration to assess mitochondrial function. […] To assess the sensitivity of the oxygen sensors 124a-b and on-chip OCR estimates, the microfluidic chip 100 performs a mitochondrial stress test. After cells are seeded on chips (e.g., 4 per treatment), tissue is matured (˜5-7 days), and basal OCR is established, oligomycin (1 μM & 30 min), which blocks proton translocation through complex V and represses ATP and OCR, are administered to the chips and OCR are assessed continuously. […] The oxygen sensors 124a-b read oxygen levels on the fluid path before and after the cell chamber. The inlet readout represents oxygenated media levels leaving the reoxygenation channel and the outlet readout reflects oxygen-depleted media due oxygen consumption of liver tissue. The continuous readouts are captured and recorded by the controller 114 of the microfluidic chip 100.
Turning to `C=C(C)[C@H]1Cc2c(ccc3c2O[C@@H]2COc4cc(OC)c(OC)cc4[C@@H]2C3=O)O1` [Rotenone, rotenone], the “OCR (oxygen consumption rate)” value is “complete reduction in OCR”.
Regarding `CC[C@H]1/C=C/C=C/C[C@@H](C)[C@H](O)[C@@](C)(O)C(=O)[C@@H](C)[C@H](O)[C@@H](C)C(=O)[C@@H](C)[C@H](O)[C@@H](C)/C=C/C(=O)O[C@@H]2[C@H](C)[C@H](CC1)O[C@]1(CC[C@H](C)[C@H](C[C@@H](C)O)O1)[C@H]2C` [oligomycin], the “OCR (oxygen consumption rate)” value was “decreased OCR values, but non-zero values”.
Regarding FCCP, the “OCR (oxygen consumption rate)” value is “increases OCR to its maximum level”.
